From the NIST ThermoML archive (doi:10.1021/je060271a)
Values joined by “and” are separate entries in the source; they are usually repeats but may differ in a detail not shown here. Equal values may be shown once.

Settings: Liquid, Vibrating tube method

CCCCC(=O)OCC(COC(=O)CCCC)(COC(=O)CCCC)COC(=O)CCCC [pentaerythritol tetrapentanoate]
Settings	mass density
343.14 K, 22204 kPa	994.9 kg/m3
343.14 K, 22235 kPa	994.9 kg/m3
343.14 K, 22267 kPa	995 kg/m3
343.14 K, 22298 kPa	995 kg/m3
343.14 K, 22334 kPa	995 kg/m3
343.14 K, 22365 kPa	994.9 kg/m3
343.14 K, 22395 kPa	994.9 kg/m3
343.14 K, 22432 kPa	994.9 kg/m3
343.14 K, 22462 kPa	995.1 kg/m3
343.14 K, 22494 kPa	995 kg/m3
343.14 K, 22562 kPa	995.1 kg/m3
343.14 K, 22594 kPa	995 kg/m3
343.14 K, 22728 kPa	995.2 kg/m3
343.14 K, 22766 kPa	995.2 kg/m3
343.14 K, 22798 kPa	995.3 kg/m3
343.14 K, 22830 kPa	995.3 kg/m3
343.14 K, 22868 kPa	995.3 kg/m3
343.14 K, 22901 kPa	995.4 kg/m3
343.14 K, 22933 kPa	995.4 kg/m3
343.14 K, 22971 kPa	995.4 kg/m3
343.14 K, 23004 kPa	995.4 kg/m3
343.14 K, 23038 kPa	995.4 kg/m3
343.14 K, 23077 kPa	995.5 kg/m3
343.14 K, 23110 kPa	995.5 kg/m3
343.14 K, 23144 kPa	995.4 kg/m3
343.14 K, 23177 kPa	995.5 kg/m3
343.14 K, 23217 kPa	995.5 kg/m3
343.14 K, 23284 kPa	995.6 kg/m3
343.14 K, 23357 kPa	995.6 kg/m3
343.14 K, 23391 kPa	995.5 kg/m3
343.14 K, 23432 kPa	995.8 kg/m3
343.14 K, 23500 kPa	995.8 kg/m3
343.14 K, 23535 kPa	995.9 kg/m3
343.14 K, 23577 kPa	995.7 kg/m3
343.14 K, 23612 kPa	995.8 kg/m3
343.14 K, 23646 kPa	995.8 kg/m3
343.14 K, 23687 kPa	995.8 kg/m3
343.14 K, 23722 kPa	995.9 kg/m3
343.14 K, 23757 kPa	995.9 kg/m3
343.14 K, 23799 kPa	995.9 kg/m3
343.14 K, 23834 kPa	996 kg/m3
343.14 K, 23870 kPa	996 kg/m3
343.14 K, 23913 kPa	996.1 kg/m3
343.14 K, 23949 kPa	996.2 kg/m3
343.14 K, 24100 kPa	996 kg/m3
343.14 K, 24817 kPa	996.7 kg/m3
343.14 K, 25020 kPa	996.6 kg/m3
343.14 K, 25061 kPa	996.8 kg/m3
343.14 K, 25102 kPa	996.8 kg/m3
343.14 K, 25142 kPa	996.7 kg/m3
343.14 K, 25188 kPa	996.9 kg/m3
343.14 K, 25228 kPa	996.9 kg/m3
343.14 K, 25406 kPa	996.9 kg/m3
343.14 K, 25451 kPa	997.1 kg/m3
343.14 K, 25495 kPa	997 kg/m3
343.14 K, 25549 kPa	997 kg/m3
343.14 K, 25596 kPa	997.1 kg/m3
343.14 K, 25644 kPa	997.2 kg/m3
343.14 K, 25691 kPa	997.1 kg/m3
343.14 K, 25745 kPa	997.1 kg/m3
343.14 K, 25792 kPa	997.2 kg/m3
343.14 K, 25943 kPa	997.2 kg/m3
343.14 K, 25992 kPa	997.3 kg/m3
343.14 K, 26041 kPa	997.5 kg/m3
343.14 K, 26099 kPa	997.5 kg/m3
343.14 K, 26149 kPa	997.5 kg/m3
343.14 K, 30161 kPa	1000.1 kg/m3
343.14 K, 32316 kPa	1001.3 kg/m3
343.14 K, 32354 kPa	1001.4 kg/m3
343.14 K, 32399 kPa	1001.4 kg/m3
343.14 K, 32523 kPa	1001.6 kg/m3
343.15 K, 106.2 kPa	978.6 kg/m3
343.15 K, 106.4 kPa	978.5 kg/m3 and 978.6 kg/m3
343.15 K, 106.6 kPa	978.5 kg/m3
343.15 K, 106.7 kPa	978.6 kg/m3
343.15 K, 106.8 kPa	978.6 kg/m3
343.15 K, 106.9 kPa	978.6 kg/m3
343.15 K, 107.4 kPa	978.6 kg/m3
343.15 K, 109.5 kPa	978.6 kg/m3
343.15 K, 114.4 kPa	978.4 kg/m3
343.15 K, 120 kPa	978.7 kg/m3
343.15 K, 122.2 kPa	978.7 kg/m3
343.15 K, 125.2 kPa	978.7 kg/m3
343.15 K, 129.2 kPa	978.7 kg/m3
343.15 K, 133.3 kPa	978.6 kg/m3
343.15 K, 138.9 kPa	978.6 kg/m3
343.15 K, 146.6 kPa	978.5 kg/m3
343.15 K, 154.5 kPa	978.6 kg/m3
343.15 K, 164.6 kPa	978.5 kg/m3
343.15 K, 180.1 kPa	978.6 kg/m3
343.15 K, 197 kPa	978.6 kg/m3
343.15 K, 217.8 kPa	978.7 kg/m3
343.15 K, 250.8 kPa	978.7 kg/m3
343.15 K, 286.7 kPa	978.8 kg/m3
343.15 K, 330.1 kPa	978.8 kg/m3
343.15 K, 380.3 kPa	978.7 kg/m3
343.15 K, 749.2 kPa	979 kg/m3
343.15 K, 1709.2 kPa	979.9 kg/m3
343.15 K, 1788.2 kPa	980 kg/m3
343.15 K, 1843.4 kPa	979.8 kg/m3
343.15 K, 1867.5 kPa	979.9 kg/m3
343.15 K, 1894.4 kPa	980 kg/m3
343.15 K, 1917.3 kPa	979.9 kg/m3
343.15 K, 1941.1 kPa	980 kg/m3
343.15 K, 1965.4 kPa	980.1 kg/m3
343.15 K, 1994.4 kPa	979.9 kg/m3
343.15 K, 2019 kPa	980.2 kg/m3
343.15 K, 2044.9 kPa	980.2 kg/m3
343.15 K, 2075.6 kPa	980 kg/m3
343.15 K, 2102.6 kPa	980 kg/m3
343.15 K, 2129.9 kPa	980.2 kg/m3
343.15 K, 2163.5 kPa	980.2 kg/m3
343.15 K, 2193.4 kPa	980.1 kg/m3
343.15 K, 2252.9 kPa	980.3 kg/m3
343.15 K, 2352.8 kPa	980.3 kg/m3
343.15 K, 2494.2 kPa	980.5 kg/m3
343.15 K, 2573.8 kPa	980.5 kg/m3
343.15 K, 2651 kPa	980.7 kg/m3
343.15 K, 2698.2 kPa	980.6 kg/m3
343.15 K, 2738.4 kPa	980.4 kg/m3
343.15 K, 2779.7 kPa	980.7 kg/m3
343.15 K, 2830.5 kPa	980.7 kg/m3
343.15 K, 2972.7 kPa	980.9 kg/m3
343.15 K, 3068.2 kPa	981 kg/m3
343.15 K, 3117.1 kPa	980.9 kg/m3
343.15 K, 3897.8 kPa	981.5 kg/m3
343.15 K, 3924.9 kPa	981.5 kg/m3
343.15 K, 3952.8 kPa	981.6 kg/m3
343.15 K, 3986.3 kPa	981.7 kg/m3
343.15 K, 4014.7 kPa	981.6 kg/m3
343.15 K, 4043.6 kPa	981.7 kg/m3
343.15 K, 4073 kPa	981.8 kg/m3
343.15 K, 4107.7 kPa	981.6 kg/m3
343.15 K, 4137.6 kPa	981.7 kg/m3
343.15 K, 4168.8 kPa	981.8 kg/m3
343.15 K, 4199.3 kPa	981.8 kg/m3
343.15 K, 4230.1 kPa	981.9 kg/m3
343.15 K, 4267.5 kPa	981.9 kg/m3
343.15 K, 4299.4 kPa	981.8 kg/m3
343.15 K, 4597.4 kPa	982 kg/m3
343.15 K, 4629.6 kPa	982.1 kg/m3
343.15 K, 4643.1 kPa	982 kg/m3
343.15 K, 4660.4 kPa	982.2 kg/m3
343.15 K, 4661.1 kPa	982.1 kg/m3
343.15 K, 4661.7 kPa	982.1 kg/m3
343.15 K, 4662.3 kPa	982.1 kg/m3
343.15 K, 4662.6 kPa	982 kg/m3
343.15 K, 4663.1 kPa	982.2 kg/m3
343.15 K, 4754 kPa	982 kg/m3
343.15 K, 4934.5 kPa	982.4 kg/m3
343.15 K, 4956.5 kPa	982.3 kg/m3
343.15 K, 4979.2 kPa	982.3 kg/m3
343.15 K, 5005.6 kPa	982.4 kg/m3
343.15 K, 5027.6 kPa	982.5 kg/m3
343.15 K, 5050.1 kPa	982.4 kg/m3
343.15 K, 5076.2 kPa	982.3 kg/m3
343.15 K, 5120.9 kPa	982.4 kg/m3
343.15 K, 5279.4 kPa	982.6 kg/m3
343.15 K, 5366.4 kPa	982.7 kg/m3
343.15 K, 5392 kPa	982.8 kg/m3
